Results as given in ChEMBL document CHEMBL3112514, “Insights into antioxidant activity of 1-adamantylthiopyridine analogs using multiple linear regression” (Eur J Med Chem, 2014).

Legend:
[1] = Antioxidant activity assessed as inhibition of photoreduction of nitro blue tetrazolium after 7 mins by SOD activity assay; assay type: functional; design: concentration or dose not given beside the values
[2] = test system: Radical scavenging activity; test: Antioxidant activity assessed as DPPH radical scavenging activity; assay type: functional; design: concentration or dose not given beside the values

| Compound | inhibition [1] [%] | Activity [2] [%] |
| --- | --- | --- |
| O=C(O)c1cccnc1SC12CC3CC(CC(C3)C1)C2 | 15.4 | 33.2 |
| Brc1cccnc1SC12CC3CC(CC(C3)C1)C2 | 17.2 | 21.1 |
| NC(=O)c1cccnc1SC12CC3CC(CC(C3)C1)C2 | 15.4 | 0.57 |
| N#Cc1cccnc1SC12CC3CC(CC(C3)C1)C2 | 17.3 | 0.3 |
| Brc1cncc(SC23CC4CC(CC(C4)C2)C3)c1 | 53.3 | 17.1 |
| Oc1ccc(SC23CC4CC(CC(C4)C2)C3)nc1 | 45.5 | 0.3 |
| CC(=O)N(C(C)=O)c1cccnc1SC12CC3CC(CC(C3)C1)C2 | – | 17.7 |
| CCOc1cccnc1SC12CC3CC(CC(C3)C1)C2 | 31.8 | 14.2 |
| CC(=O)Oc1cccnc1SC12CC3CC(CC(C3)C1)C2 | 16.8 | 7.03 |
